Assay results published in patent US8012975B2, “Antitumoral analogs of ET-743” (Pharma Mar, S.A., priority 2000, dated 2011).
Where two headings read alike, the source gives them in different places.

Legend:
A-549 = assay: Cytotoxic activity IC50, A-549
MEL-28 = assay: Cytotoxic activity IC50, MEL-28
DU-145 = assay: Cytotoxic activity IC50, DU-145
P-388 = assay: Cytotoxic activity IC50, P-388
HT-29 = assay: Cytotoxic activity IC50, HT-29
[1] = Homo sapiens, A549, read-out: CYTOTOXIC ACTIVITIY IC50 (μM) A-549, A-549
[2] = Homo sapiens, SK-MEL-28, read-out: CYTOTOXIC ACTIVITIY IC50 (μM) MEL-28, MEL-28
[3] = Homo sapiens, DU-145, read-out: CYTOTOXIC ACTIVITIY IC50 (μM) DU-145, DU-145
[4] = Mus musculus, P388, read-out: CYTOTOXIC ACTIVITIY IC50 (μM) P-388
[5] = Homo sapiens, HT-29, read-out: CYTOTOXIC ACTIVITIY IC50 (μM) HT-29, HT-29

Row | SMILES | IC50 (A-549; [1]) [µM] | IC50 (MEL-28; [2]) [µM] | IC50 (P-388; [4]) [µM] | IC50 (HT-29; [5]) [µM] | also measured
1 | COc1c(C)cc2c(c1O)[C@@H]1C3Cc4c(OC(C)=O)c(C)c5c(c4[C@H](CNC(=O)CCC4CCCCC4)N3[C@@H](C#N)[C@H](C2)N1C)OCO5 (stereo partly drawn) | 0.0015 | – | – | – | –
2 | C=CCOc1c(C)c2c(c3c1CC1[C@H]4c5c(cc(C)c(OC)c5OCOC)C[C@@H]([C@H](C#N)N1[C@H]3COC(=O)/C=C/c1cccc(C(F)(F)F)c1)N4C)OCO2 (stereo partly drawn) | > 1 | > 1 | > 1 | > 1 | IC50 (DU-145; [3]): > 1 µM
3 | C=CCOc1c(C)c2c(c3c1CC1[C@H]4c5c(cc(C)c(OC)c5OCOC)C[C@@H]([C@H](C#N)N1[C@H]3COC(=O)/C=C/c1ccccc1)N4C)OCO2 (stereo partly drawn) | 0.1 | 0.1 | 0.1 | 0.1 | IC50 (DU-145; [3]): 0.1 µM
4 | COCOc1c(OC)c(C)cc2c1[C@@H]1C3Cc4c(OC(=O)C(F)(F)F)c(C)c5c(c4[C@H](CNC(=O)CCc4ccccc4)N3[C@@H](C#N)[C@H](C2)N1C)OCO5 (stereo partly drawn) | 0.5 | 0.5 | 0.5 | 0.5 | IC50 (DU-145; [3]): 0.5 µM
5 | COc1c(C)cc2c(c1O)[C@@H]1C3Cc4c(OC(=O)CCCl)c(C)c5c(c4[C@H](CNC(=O)CCc4ccccc4)N3[C@@H](C#N)[C@H](C2)N1C)OCO5 (stereo partly drawn) | 0.01 | 0.01 | 0.01 | 0.01 | IC50 (DU-145; [3]): 0.01 µM
6 | CCCC(=O)Oc1c(OC)c(C)cc2c1[C@@H]1C3Cc4c(OC(C)=O)c(C)c5c(c4[C@H](CNC(=O)CCc4ccccc4)N3[C@@H](C#N)[C@H](C2)N1C)OCO5 (stereo partly drawn) | 0.0014 | – | – | 0.0014 | –
7 | COc1c(C)cc2c(c1O)[C@@H]1C3Cc4c(OC(C)=O)c(C)c5c(c4[C@H](CNC(=O)c4cccnc4Cl)N3[C@@H](C#N)[C@H](C2)N1C)OCO5 (stereo partly drawn) | 0.00015 | – | – | – | –
8 | CCC(=O)N[C@@H](C)C(=O)NC[C@H]1c2c(c(OC(C)=O)c(C)c3c2OCO3)CC2[C@H]3c4c(cc(C)c(OC)c4O)C[C@@H]([C@H](C#N)N21)N3C (stereo partly drawn) | 0.0007 | 0.0007 | 0.0007 | 0.0007 | IC50 (DU-145; [3]): 0.0007 µM
9 | COCOc1c(OC)c(C)cc2c1[C@@H]1C3Cc4c(O)c(C)c5c(c4[C@H](COC(=O)/C=C/c4ccccc4)N3[C@@H](C#N)[C@H](C2)N1C)OCO5 (stereo partly drawn) | 0.1 | 0.1 | 0.1 | 0.1 | IC50 (DU-145; [3]): 0.1 µM
10 | COc1c(C)cc2c(c1O)[C@@H]1C3Cc4c(OC(C)=O)c(C)c5c(c4[C@H](CNC(=O)/C=C/c4cccc(C(F)(F)F)c4)N3[C@@H](O)[C@H](C2)N1C)OCO5 (stereo partly drawn) [drawing 109] | – | – | – | – | IC50 (MEL-28; read-out: CYTOTOXIC ACTIVITIY IC50 (μM) MEL-28, MEL-28): 0.0001 µM; IC50 (DU-145; read-out: CYTOTOXIC ACTIVITIY IC50 (μM) DU-145, DU-145): 0.0001 µM; IC50 (P-388; read-out: CYTOTOXIC ACTIVITIY IC50 (μM) P-388, P-388): 0.0001 µM; IC50 (A-549; read-out: CYTOTOXIC ACTIVITIY IC50 (μM) A-549, A-549): 0.0001 µM; IC50 (HT-29; read-out: CYTOTOXIC ACTIVITIY IC50 (μM) HT-29, HT-29): 0.0001 µM
11 | C=CCOC(=O)Oc1c(C)c2c(c3c1CC1[C@H]4c5c(cc(C)c(OC)c5OCOC)C[C@@H]([C@H](C#N)N1[C@H]3CNC(=O)[C@H](C)NC(=O)OC(C)(C)C)N4C)OCO2 (stereo partly drawn) | 0.06 | 0.06 | 0.06 | 0.06 | IC50 (DU-145; [3]): 0.06 µM
12 | COc1c(C)cc2c(c1O)[C@@H]1C3Cc4c(OC(C)=O)c(C)c5c(c4[C@H](CNC(=O)[C@H](C)NC(=O)CCc4ccccc4)N3[C@@H](C#N)[C@H](C2)N1C)OCO5 (stereo partly drawn) | 0.001 | 0.001 | 0.0006 | 0.0006 | IC50 (DU-145; [3]): 0.0006 µM
13 | COc1c(C)cc2c(c1OC(C)=O)[C@@H]1C3Cc4c(OC(=O)CCl)c(C)c5c(c4[C@H](CNC(=O)CCc4ccccc4)N3[C@@H](C#N)[C@H](C2)N1C)OCO5 (stereo partly drawn) | 0.01 | 0.01 | 0.01 | 0.01 | IC50 (DU-145; [3]): 0.01 µM
14 | CCCC(=O)OC[C@H]1c2c(c(O)c(C)c3c2OCO3)CC2[C@H]3c4c(cc(C)c(OC)c4OCOC)C[C@@H]([C@H](C#N)N21)N3C (stereo partly drawn) | 0.1 | 0.1 | 0.1 | 0.1 | IC50 (DU-145; [3]): 0.1 µM
15 | COc1c(C)cc2c(c1O)[C@@H]1C3Cc4c(OC(C)=O)c(C)c5c(c4[C@H](CNC(=O)CC4CCCCC4)N3[C@@H](C#N)[C@H](C2)N1C)OCO5 (stereo partly drawn) | 0.0015 | – | – | – | –
16 | COc1c(C)cc2c(c1O)[C@@H]1C3[C@@H]4SCC(=O)C(=O)OC[C@@H](c5c6c(c(C)c(OC(C)=O)c54)OCO6)N3[C@@H](C#N)[C@H](C2)N1C (stereo partly drawn) | 0.1 | 0.1 | 0.1 | 0.1 | –
17 | COc1c(C)cc2c(c1O)[C@@H]1C3Cc4c(OC(C)=O)c(C)c5c(c4[C@H](CNC(=O)[C@@H](NC(=O)OC(C)(C)C)C(C)C)N3[C@@H](C#N)[C@H](C2)N1C)OCO5 (stereo partly drawn) | 0.007 | – | – | 0.007 | –
18 | C=CCOc1c(C)c2c(c3c1CC1[C@H]4c5c(cc(C)c(OC)c5O)C[C@@H]([C@H](C#N)N1[C@H]3COC(=O)/C=C/c1ccccc1)N4C)OCO2 (stereo partly drawn) | 0.0015 | – | – | 0.0015 | –
19 | COc1c(C)cc2c(c1O)[C@@H]1C3Cc4c(OC(C)=O)c(C)c5c(c4[C@H](CNC(=O)[C@@H]4CCCN4C(=O)OC(C)(C)C)N3[C@@H](C#N)[C@H](C2)N1C)OCO5 (stereo partly drawn) | 0.014 | – | – | 0.014 | –

Row | SMILES | IC50 (A-549; [1]) [µM] | IC50 (MEL-28; [2]) [µM] | IC50 (P-388; [4]) [µM] | IC50 (HT-29; [5]) [µM] | also measured
20 | CCCCCC(=O)Oc1c(OC)c(C)cc2c1[C@@H]1C3Cc4c(OC(C)=O)c(C)c5c(c4[C@H](CNC(=O)C(C)NC(=O)CCc4ccccc4)N3[C@@H](C#N)[C@H](C2)N1C)OCO5 (stereo partly drawn) | 0.06 | – | – | 0.06 | –
21 | COc1c(C)cc2c(c1OC(=O)CC1CCCCC1)[C@@H]1C3Cc4c(OC(C)=O)c(C)c5c(c4[C@H](CNC(=O)CC4CCCCC4)N3[C@@H](C#N)[C@H](C2)N1C)OCO5 (stereo partly drawn) | 0.013 | – | – | – | –
22 | CCCC(=O)Oc1c(OC)c(C)cc2c1[C@@H]1C3Cc4c(OC(C)=O)c(C)c5c(c4[C@H](CNC(=O)C(C)NC(=O)CCc4ccccc4)N3[C@@H](C#N)[C@H](C2)N1C)OCO5 (stereo partly drawn) | 0.012 | – | – | 0.012 | –
23 | COc1c(C)cc2c(c1O)[C@@H]1C3Cc4c(OC(C)=O)c(C)c5c(c4[C@H](CNC(=O)[C@H](Cc4c[nH]c6ccccc46)NC(=O)OC(C)(C)C)N3[C@@H](O)[C@H](C2)N1C)OCO5 (stereo partly drawn) | 0.012 | – | – | – | –
24 | COc1c(C)cc2c(c1O)[C@@H]1C3Cc4c(OC(C)=O)c(C)c5c(c4[C@H](CNC(=O)[C@H](Cc4c[nH]c6ccccc46)NC(=O)OC(C)(C)C)N3[C@@H](C#N)[C@H](C2)N1C)OCO5 (stereo partly drawn) | 0.00012 | – | – | 0.00012 | –
25 | COc1c(C)cc2c(c1O)[C@@H]1C3Cc4c(OC(C)=O)c(C)c5c(c4[C@H](CNC(=O)[C@H](Cc4ccccc4)NC(=O)OC(C)(C)C)N3[C@@H](C#N)[C@H](C2)N1C)OCO5 (stereo partly drawn) | 0.0013 | – | – | 0.0013 | –
26 | COCOc1c(OC)c(C)cc2c1[C@@H]1C3Cc4c(OC(C)=O)c(C)c5c(c4[C@H](COC(=O)/C=C/c4ccccc4)N3[C@@H](C#N)[C@H](C2)N1C)OCO5 (stereo partly drawn) | – | – | 0.01 | – | –
27 | COc1c(C)cc2c(c1OC(=O)CCC1CCCCC1)[C@@H]1C3Cc4c(OC(C)=O)c(C)c5c(c4[C@H](CNC(=O)CCC4CCCCC4)N3[C@@H](C#N)[C@H](C2)N1C)OCO5 (stereo partly drawn) | 0.12 | – | – | – | –
28 | C=CCNC[C@H]1c2c(c(OC(C)=O)c(C)c3c2OCO3)CC2[C@H]3c4c(cc(C)c(OC)c4O)C[C@@H]([C@H](C#N)N21)N3C (stereo partly drawn) | 0.0018 | – | – | 0.0018 | –
29 | CCCCCC(=O)Oc1c(OC)c(C)cc2c1[C@@H]1C3Cc4c(OC(C)=O)c(C)c5c(c4[C@H](CNC(=O)[C@H](C)NC(=O)C(F)(F)F)N3[C@@H](C#N)[C@H](C2)N1C)OCO5 (stereo partly drawn) | 0.012 | – | – | 0.012 | –
30 | CCCCCC(=O)Oc1c(OC)c(C)cc2c1[C@@H]1C3Cc4c(OC(C)=O)c(C)c5c(c4[C@H](CNC(=O)CCc4ccccc4)N3[C@@H](C#N)[C@H](C2)N1C)OCO5 (stereo partly drawn) | 0.013 | – | – | 0.013 | –
31 | CCCC(=O)Oc1c(OC)c(C)cc2c1[C@@H]1C3Cc4c(OC(C)=O)c(C)c5c(c4[C@H](CN(C(=O)CCC)C(=O)[C@H](C)N(C(=O)CCC)C(=O)C(F)(F)F)N3[C@@H](C#N)[C@H](C2)N1C)OCO5 (stereo partly drawn) | 0.11 | – | – | 0.11 | –
32 | COc1c(C)cc2c(c1O)[C@@H]1C3Cc4c(OC(C)=O)c(C)c5c(c4[C@H](CNC(=O)c4cccnc4Cl)N3[C@@H](O)[C@H](C2)N1C)OCO5 (stereo partly drawn) | 0.00015 | – | – | – | –
33 | COc1c(C)cc2c(c1OC(C)=O)[C@@H]1C3Cc4c(OC(C)=O)c(C)c5c(c4[C@H](CNC(=O)[C@@H](C)NC(=O)C(F)(F)F)N3[C@@H](C#N)[C@H](C2)N1C)OCO5 (stereo partly drawn) | 0.013 | – | – | 0.013 | –
34 | CCCC(=O)Oc1c(OC)c(C)cc2c1[C@@H]1C3Cc4c(OC(C)=O)c(C)c5c(c4[C@H](CNC(=O)[C@H](C)NC(=O)C(F)(F)F)N3[C@@H](C#N)[C@H](C2)N1C)OCO5 (stereo partly drawn) | 0.13 | – | – | 0.13 | –
35 | COc1c(C)cc2c(c1OC(C)=O)[C@@H]1C3Cc4c(OC(C)=O)c(C)c5c(c4[C@H](CNC(=O)[C@@H](C)N(C(C)=O)C(=O)C(F)(F)F)N3[C@@H](C#N)[C@H](C2)N1C)OCO5 (stereo partly drawn) | 0.12 | – | – | 0.12 | –
36 | C=CCOC1C(C)=C2OCOC2=C2C1CC1[C@H]3c4c(cc(C)c(OC)c4OCOC)C[C@@H]([C@H](C#N)N1[C@H]2COC(=O)/C(=C/SCC1c2ccccc2-c2ccccc21)OCOC)N3C (stereo partly drawn) | 0.056 | – | – | 0.056 | –
37 | COC1=C(C)C(=O)C2=C(C1=O)[C@H](CNC(C)=O)N1C(C2)[C@H]2c3c(cc(C)c(OC)c3O)C[C@@H]([C@@H]1C#N)N2C (stereo partly drawn) | 0.005 | 0.005 | 0.005 | 0.005 | –
38 | COCOc1c(OC)c(C)cc2c1[C@@H]1C3CC4C(=O)C(C)=C5OCOC5=C4[C@H](COC(=O)/C(CSCC4c5ccccc5-c5ccccc54)=N/OC)N3[C@@H](C#N)[C@H](C2)N1C (stereo partly drawn) | > 1 | – | – | > 1 | –
